Experimental data as given in patent publication US4545932A, “Glucosaminyl muramyl peptide derivatives” (Dainippon Pharmaceutical Co., Ltd., priority 1982, dated 1985).

Legend:
Type in all cases: in vivo
[1] = test system: Staphylococcus aureus No. 50774; assay: Prophylactic effect on experimental infection, Staphylococcus aureus; conditions: Std-ddY male mice, 14 days after infection
Excerpt: (§1) Std-ddY male mice weighing about 23 g (each group: 8 mice) were used. Test compounds dissolved in a physiological saline solution were each intravenously administered to mice once a day 1, 2 and 3 days before the infection. Twenty-four hours after the final administration of test compounds, the mice were infected with various microorganisms suspended in saline (in case of Staphylococcus aureus and Candida albicans) or in Trypto-Soy Broth (manufactured by Eiken Chemical Co., Ltd., Japan) (in case of Pseudomonas aeruginosa and Escherichia coli) under the conditions as shown in Table 1. When the experiment was repeated twice or more, the data were pooled.
(§2) ^a Test compounds were intravenously administered once a day 1, 2 and
(§3) 3 days before infection.
(§4) ^b Figures represent (number of survivals)/(number of animals tested)
(§5) and figures in parenthesis represent percent survival.

[2] = test system: Pseudomonas aeruginosa No. 12; assay: Prophylactic effect on experimental infection, Pseudomonas aeruginosa; conditions: Std-ddY male mice, 7 days after infection
Excerpt: as §1, §2, §3, §4, §5

Escherichia coli P-5101 = assay: Prophylactic effect on experimental infection, Escherichia coli; conditions: Std-ddY male mice, 7 days after infection
Excerpt: as §1, §2, §3, §4, §5

Candida albicans 3170 = assay: Prophylactic effect on experimental infection, Candida albicans; conditions: Std-ddY male mice, 7 days after infection
Excerpt: as §1
3170 fungal sus- infection
as §2, §3, §4, §5

Pyrogenicity in rabbits = conditions: for Pyrogenicity in rabbits: injected into ear vein, three rabbits per group
Experimental: Rabbits (each group: three rabbits) were used. Test compounds dissolved in a physiological saline solution were each injected into ear vein of rabbits. The difference between maximum body temperature within three hours after the injection of test compound and the body temperature before the injection was regarded as rise in body temperature. The degree of pyrogenicity was evaluated according to the following criterion: […]

Acute toxicity in mice = conditions: mortality for 14 days
Experimental: Male and female ICR mice aged about 6 weeks (each group: 8 mice) were used. The compound of Example 15 was dissolved in distilled water and administered to mice. Mortality was checked for 14 days and LD50 was calculated by probit method.

various microorganisms = assay: Antiinfectious effect in mice; conditions: summary of Table 2; mice
Excerpt: as §1
Besides, as to the compounds of Examples 8, 18, 36, 37 and 45 (derivatives of GMP3 -A), similar experiments were done.

[3] = Dose 0.05 mg/kg i.v. once a day 1, 2 and 3 days before infection
[4] = Dose 0.125 mg/kg i.v. once a day 1, 2 and 3 days before infection
[5] = Dose 0.2 mg/kg i.v. once a day 1, 2 and 3 days before infection
[6] = Dose 0.8 mg/kg i.v. once a day 1, 2 and 3 days before infection
[7] = Dose 3.1 mg/kg i.v. once a day 1, 2 and 3 days before infection
[8] = Dose 12.5 mg/kg i.v. once a day 1, 2 and 3 days before infection
[9] = Dose 0.0125 mg/kg i.v. once a day 1, 2 and 3 days before infection
[10] = Dose 50 mg/kg i.v. once a day 1, 2 and 3 days before infection

Q: Which “(number of survivals)/(number of animals tested)” value [1, 3] does the source give for `CCCCCCCCCCCCCCCCCC(=O)NC(CCCC(NC(=O)CCC(NC(=O)C(C)NC(=O)C(C)OC1C(NC(C)=O)C(O)OC(CO)C1OC1OC(CO)C(O)C(O)C1NC(C)=O)C(N)=O)C(=O)NC(C)C(=O)[O-])C(N)=O.[Na+]` [Example 15, sodium β-N-acetylglucosaminyl(1→4)-N-acetylmuramyl-L-alanyl-D-isoglutaminyl-(L)-stearoyl-(D)-meso-2,6-diaminopimelic acid-(D)-amide(L)-D-alanate] here?
A: 9/16

Q: And the percent survival [1, 3]?
A: 56.3%

Q: And the “(number of survivals)/(number of animals tested)” value [1, 4]?
A: 3/16

Q: And the percent survival [1, 4]?
A: 18.8%

Q: And the “(number of survivals)/(number of animals tested)” value [1, 5]?
A: 13/16

Q: What about the percent survival [1, 5] of the same molecule?
A: 81.3%

Q: What about the “(number of survivals)/(number of animals tested)” value [1, 6] of the same molecule?
A: 13/16

Q: What about the percent survival [1, 6] of the same molecule?
A: 81.3%

Q: What about the “(number of survivals)/(number of animals tested)” value [1, 7] of the same molecule?
A: 15/16

Q: And the percent survival [1, 7]?
A: 93.8%

Q: What about the “(number of survivals)/(number of animals tested)” value [1, 8] of the same molecule?
A: 13/16

Q: And the percent survival [1, 8]?
A: 81.3%

Q: And the “(number of survivals)/(number of animals tested)” value [2, 9]?
A: 12/32

Q: What about the percent survival [2, 9] of the same molecule?
A: 37.5%

Q: What about the “(number of survivals)/(number of animals tested)” value [2, 3] of the same molecule?
A: 14/32

Q: What about the percent survival [2, 3] of the same molecule?
A: 43.8%

Q: What about the “(number of survivals)/(number of animals tested)” value [2, 5] of the same molecule?
A: 15/32

Q: What about the percent survival [2, 5] of the same molecule?
A: 46.9%

Q: And the “(number of survivals)/(number of animals tested)” value [2, 6]?
A: 14/24

Q: What about the percent survival [2, 6] of the same molecule?
A: 58.3%

Q: What about the “(number of survivals)/(number of animals tested)” value [2, 7] of the same molecule?
A: 14/16

Q: What about the percent survival [2, 7] of the same molecule?
A: 87.5%

Q: What about the “(number of survivals)/(number of animals tested)” value [2, 8] of the same molecule?
A: 8/8

Q: What about the percent survival [2, 8] of the same molecule?
A: 100%

Q: And the “(number of survivals)/(number of animals tested)” value (Escherichia coli P-5101; [3])?
A: 6/16

Q: And the percent survival (Escherichia coli P-5101; [3])?
A: 37.5%

Q: And the “(number of survivals)/(number of animals tested)” value (Escherichia coli P-5101; [5])?
A: 7/16

Q: And the percent survival (Escherichia coli P-5101; [5])?
A: 43.8%

Q: What about the “(number of survivals)/(number of animals tested)” value (Escherichia coli P-5101; [6]) of the same molecule?
A: 10/16

Q: And the percent survival (Escherichia coli P-5101; [6])?
A: 62.5%

Q: What about the “(number of survivals)/(number of animals tested)” value (Escherichia coli P-5101; [7]) of the same molecule?
A: 11/16

Q: What about the percent survival (Escherichia coli P-5101; [7]) of the same molecule?
A: 68.8%

Q: What about the “(number of survivals)/(number of animals tested)” value (Escherichia coli P-5101; [8]) of the same molecule?
A: 11/16

Q: And the percent survival (Escherichia coli P-5101; [8])?
A: 68.8%

Q: What about the “(number of survivals)/(number of animals tested)” value (Escherichia coli P-5101; [10]) of the same molecule?
A: 7/8

Q: What about the percent survival (Escherichia coli P-5101; [10]) of the same molecule?
A: 87.5%

Q: What about the “(number of survivals)/(number of animals tested)” value (Candida albicans 3170; [6]) of the same molecule?
A: 3/8

Q: What about the percent survival (Candida albicans 3170; [6]) of the same molecule?
A: 37.5%

Q: And the “(number of survivals)/(number of animals tested)” value (Candida albicans 3170; [7])?
A: 4/8

Q: What about the percent survival (Candida albicans 3170; [7]) of the same molecule?
A: 50%

Q: What about the “(number of survivals)/(number of animals tested)” value (Candida albicans 3170; [8]) of the same molecule?
A: 4/8

Q: And the percent survival (Candida albicans 3170; [8])?
A: 50%

Q: What about the “(number of survivals)/(number of animals tested)” value (Candida albicans 3170; [10]) of the same molecule?
A: 7/8

Q: What about the percent survival (Candida albicans 3170; [10]) of the same molecule?
A: 87.5%

Q: What about the Pyrogenicity in rabbits (Pyrogenicity in rabbits; Dose 0.1 mg/rabbit) of the same molecule?
A: - (one animal showed rise in body temperature of 0.6 °C or more)

Q: What about the Pyrogenicity in rabbits (Pyrogenicity in rabbits; Dose 0.3 mg/rabbit) of the same molecule?
A: - (one animal showed rise in body temperature of 0.6 °C or more)

Q: What about the Pyrogenicity in rabbits (Pyrogenicity in rabbits; Dose 1 mg/rabbit) of the same molecule?
A: - (one animal showed rise in body temperature of 0.6 °C or more)

Q: And the Pyrogenicity in rabbits (Pyrogenicity in rabbits; Dose 3 mg/rabbit)?
A: ± (one animal showed rise in body temperature of 0.6 °C or more)

Q: And the Pyrogenicity in rabbits (Pyrogenicity in rabbits; Dose 10 mg/rabbit)?
A: + (two or more animals showed rise in body temperature of 0.6 °C or more)

Q: What about the “pyrogenicity compared with GMP4 -A” value (Pyrogenicity in rabbits; summary of Table 3, rabbits) of the same molecule?
A: less pyrogenicity than GMP4 -A

Q: What about the LD50 (Acute toxicity in mice; i.p., female ICR mice) of the same molecule?
A: > 600 mg/kg

Q: What about the LD50 (Acute toxicity in mice; i.p., male ICR mice) of the same molecule?
A: > 600 mg/kg

Q: And the LD50 (Acute toxicity in mice; i.v., female ICR mice, probit method, 95% confidence limits in parenthesis)?
A: 266 (237-297) mg/kg

Q: What about the LD50 (Acute toxicity in mice; i.v., male ICR mice, probit method, 95% confidence limits in parenthesis) of the same molecule?
A: 292 (261-328*) mg/kg

Q: What about the LD50 (Acute toxicity in mice; p.o., female ICR mice) of the same molecule?
A: > 3000 mg/kg

Q: What about the LD50 (Acute toxicity in mice; p.o., male ICR mice) of the same molecule?
A: > 3000 mg/kg

Q: And the LD50 (Acute toxicity in mice; s.c., female ICR mice)?
A: > 600 mg/kg

Q: What about the LD50 (Acute toxicity in mice; s.c., male ICR mice) of the same molecule?
A: > 600 mg/kg

Q: And the “antiinfectious effect compared with GMP4 -A” value (various microorganisms)?
A: more potent antiinfectious effect
